Here are results for 22 molecules from US12570988B2, “Aptamers that bind thiamine analogs and derivatives” (MeiraGTx Gene Regulation Limited, priority 2020, dated 2026).

Assay [1] concerns riboswitch 15D10. As to the kind of experiment: Luciferase reporter with 15D10 riboswitch (Luci-15D10) in AML12 cells. It is filed as cell-based, mouse. The conditions noted are these: for relative potency in inducing luciferase expression: AML 12 cells, compared with fursultiamine or within groups; for fold induction at 50 µM: Mus musculus, AML12, 24 h, read-out: Fold increase in riboswitch 15D10-regulated luciferase expression, AML; for fold induction at 50 µM / Fold increase in riboswitch 15D10-regulated luciferase expression, AML: AML12 cells, Table 2, 50 μM. A general note: A reporter such as luciferase makes a cellular process visible.

In assay [2] the test system is riboswitch 15D10. The assay is described as follows: Luciferase reporter with 15D10 riboswitch (Luci-15D10) in HEK 293 cells. It is filed as cell-based, human. The conditions noted are these: HEK 293 cells; for effect on luciferase expression from Luci-15D10: FIG. 9A, 9C; for fold induction at 50 µM: Homo sapiens, HEK293, 24 h, read-out: Fold increase in riboswitch 15D10-regulated luciferase expression, HEK; for fold induction at 50 µM / Fold increase in riboswitch 15D10-regulated luciferase expression, HEK: Table 2, 50 μM. The method, then:
Transfection: 3.5×10^4 human embryonic kidney (HEK) 293 cells were plated in a 96-well flat bottom plate the day before transfection. Plasmid DNA (500 ng) was added to a tube or a 96-well U-bottom plate. […] Then, 50 μL of this diluted transfection reagent was added to the DNA, mixed, and incubated at RT for 20 min. Finally, 7 μL of this solution was added to a well of cells in the 96-well plate. Four hours after transfection, medium containing transfection solution was replaced by medium containing either TPP, fursultiamine, prosultiamine, bisbentiamine, beclotiamine hydrochloride, or sulbutiamine as aptamer inducers.
Firefly luciferase assay of cultured cells: Twenty-four hours after media change, plates were removed from the incubator, and equilibrated to RT for several minutes on a lab bench, then aspirated. Glo-lysis buffer (Promega, 100 μL, RT) was added, and the plates allowed to remain at RT for at least 5 minutes. Then, the well contents were mixed by 50 μL trituration, and 20 μL of each sample was mixed with 20 μL of bright-glo reagent (Promega) that had been diluted to 10% in glo-lysis buffer. 96 wells were spaced on an opaque white 384-well plate. Following a 5 min incubation at RT, luminescence was measured using a Tecan machine with 500 ms read time. The luciferase activity was expressed as mean arbitrary light units (ALU)±S.D., and fold induction was calculated as the quotient of the luciferase activity obtained from cells with TPP or analog treatment divided by the luciferase activity obtained from cells without TPP or analog treatment.

In the case of `C/C(=C(\CCO)SCOC(=O)C(C)C)N(C=O)Cc1cnc(C)nc1N` [Compound M16, (Z)-((2-(N-((4-Amino-2-methylpyrimidin-5-yl)methyl)formamido)-5-hydroxypent-2-en-3-yl)thio)methyl isobutyrate], the “relative potency in inducing luciferase expression” value in the assay on riboswitch 15D10 [1] is “more potent than fursultiamine”. Further, the “effect on luciferase expression from Luci-15D10” value (from here on “effect on luciferase expression”) in the assay on riboswitch 15D10 [2] was “increased”.

Consider `C/C(=C(\CCO)SC(C)OC(=O)C(C)(C)C)N(C=O)Cc1cnc(C)nc1N` (stereo not drawn) [Compound M18, (Z)-1-((2-(N-((4-Amino-2-methylpyrimidin-5-yl)methyl)formamido)-5-hydroxypent-2-en-3-yl)thio)ethyl pivalate], for which the “effect on luciferase expression” value in the assay with riboswitch 15D10 [2] was “increased”.

Take `C/C(=C(\CCO)SC(=O)c1ccccc1)N(C=O)Cc1cnc(C)nc1N` [Compound M26, (Z)—S-(2-(N-((4-Amino-2-methylpyrimidin-5-yl)methyl)formamido)-5-hydroxypent-2-en-3-yl) benzothioate]: in the assay on riboswitch 15D10 [2], the “effect on luciferase expression” value is on record as “increased luciferase expression”.

In the case of `C/C(=C(\CCO)SC(=O)C(C)C)N(C=O)Cc1cnc(C)nc1N` [Compound M27, (Z)—S-(2-(N-((4-Amino-2-methylpyrimidin-5-yl)methyl)formamido)-5-hydroxypent-2-en-3-yl) 2-methylpropanethioate], in the assay on riboswitch 15D10 [2], the “effect on luciferase expression” value is reported as “increased luciferase expression”.

In the case of `C/C(=C(\CCO)SC(=O)C(C)(C)C)N(C=O)Cc1cnc(C)nc1N` [Compound M28, (Z)—S-(2-(N-((4-Amino-2-methylpyrimidin-5-yl)methyl)formamido)-5-hydroxypent-2-en-3-yl) 2,2-dimethylpropanethioate], the “effect on luciferase expression” value in the assay with riboswitch 15D10 [2] was “increased luciferase expression”.

With `COc1ccc(C(=O)S/C(CCO)=C(/C)N(C=O)Cc2cnc(C)nc2N)cc1` [Compound M29, (Z)—S-(2-(N-((4-Amino-2-methylpyrimidin-5-yl)methyl)formamido)-5-hydroxypent-2-en-3-yl) 4-methoxybenzothioate], in the assay on riboswitch 15D10 [2], the “effect on luciferase expression” value is given as “increased luciferase expression”.

Turning to `C/C(=C(\CCO)SC(=O)c1c(Cl)cccc1Cl)N(C=O)Cc1cnc(C)nc1N` [Compound M30, (Z)—S-(2-(N-((4-Amino-2-methylpyrimidin-5-yl)methyl)formamido)-5-hydroxypent-2-en-3-yl) 2,6-dichlorobenzothioate], the “effect on luciferase expression” value in the assay with riboswitch 15D10 [2] is given as “no effect on luciferase expression”.

With `C/C(=C(\CCOP(=O)(O)O)SC(=O)C(C)(C)C)N(C=O)Cc1cnc(C)nc1N` [Compound M31, (Z)—S-(2-(N-((4-Amino-2-methylpyrimidin-5-yl)methyl)formamido)-5-(phosphonooxy)pent-2-en-3-yl) 2,2-dimethylpropanethioate], the “effect on luciferase expression” value in the assay with riboswitch 15D10 [2] is listed as “no effect on luciferase expression”.

On to `C/C(=C(\CCOP(=O)(O)O)SC(=O)c1c(Cl)cccc1Cl)N(C=O)Cc1cnc(C)nc1N` [Compound M33, (Z)—S-(2-(N-((4-Amino-2-methylpyrimidin-5-yl)methyl)formamido)-5-(phosphonooxy)pent-2-en-3-yl) 2,6-dichlorobenzothioate], for which the “effect on luciferase expression” value in the assay on riboswitch 15D10 [2] is “no effect on luciferase expression”.

As for `C/C(=C(\CCO)SC(=O)c1cccc2ccccc12)N(C=O)Cc1cnc(C)nc1N` [Compound M34, (Z)—S-(2-(N-((4-Amino-2-methylpyrimidin-5-yl)methyl)formamido)-5-hydroxypent-2-en-3-yl) naphthalene-1-carbothioate], the figures for the “relative potency in inducing luciferase expression” value in the assay with riboswitch 15D10 [1] and in the assay on riboswitch 15D10 [2] (compared with fursultiamine or within Formula V/VI groups) were “most potent inducer” and “most potent compound”, respectively. Moreover, the fold induction at 50 µM in the assay with riboswitch 15D10 [1] is 291; with riboswitch 15D10 [2] it was 164. The “effect on luciferase expression” value in the assay on riboswitch 15D10 [2] was “increased luciferase expression”.

For `C/C(=C(\CCO)SC(=O)c1ccc(C)c2ccccc12)N(C=O)Cc1cnc(C)nc1N` [Compound M37, (Z)—S-(2-(N-((4-amino-2-methylpyrimidin-5-yl)methyl)formamido)-5-hydroxypent-2-en-3-yl) 4-methylnaphthalene-1-carbothioate], the fold induction at 50 µM is 134 in the assay on riboswitch 15D10 [1] and 76.2 with riboswitch 15D10 [2].

With `CCOc1ccc2ccccc2c1C(=O)S/C(CCO)=C(/C)N(C=O)Cc1cnc(C)nc1N` [Compound M38, (Z)—S-(2-(N-((4-amino-2-methylpyrimidin-5-yl)methyl)formamido)-5-hydroxypent-2-en-3-yl) 2-ethoxynaphthalene-1-carbothioate], the fold induction at 50 µM in the assay with riboswitch 15D10 [1] stood at 1; with riboswitch 15D10 [2], 1.2.

`C/C(=C(\CCO)SC(=O)c1ccc(Br)c2ccccc12)N(C=O)Cc1cnc(C)nc1N` [Compound M39, (Z)—S-(2-(N-((4-amino-2-methylpyrimidin-5-yl)methyl)formamido)-5-hydroxypent-2-en-3-yl) 4-bromonaphthalene-1-carbothioate]: the fold induction at 50 µM in the assay with riboswitch 15D10 [1] is 127; in the assay on riboswitch 15D10 [2] it was 103.

For the molecule `C/C(=C(\CCO)SC(=O)c1cc2ccccc2c2ccccc12)N(C=O)Cc1cnc(C)nc1N` [Compound M40, (Z)—S-(2-(N-((4-amino-2-methylpyrimidin-5-yl)methyl)formamido)-5-hydroxypent-2-en-3-yl) phenanthrene-9-carbothioate], in the assay with riboswitch 15D10 [1], the “Fold increase in riboswitch 15D10-regulated luciferase expression, AML” value was 206.0 fold. For the same molecule, the “Fold increase in riboswitch 15D10-regulated luciferase expression, HEK” value in the assay on riboswitch 15D10 [2] came to 83.1 fold.

As for `C/C(=C(\CCO)SC(=O)c1cc2ccccc2c2ccccc12)N(C=O)Cc1cnc(C)nc1N` [Compound M43, (Z)—S-(2-(N-((4-amino-2-methylpyrimidin-5-yl)methyl)formamido)-5-hydroxypent-2-en-3-yl) phenanthrene-9-carbothioate], the “Fold increase in riboswitch 15D10-regulated luciferase expression, AML” value in the assay on riboswitch 15D10 [1] worked out at 95.3 fold. In addition, in the assay with riboswitch 15D10 [2], the “Fold increase in riboswitch 15D10-regulated luciferase expression, HEK” value is given as 10.2 fold.

For the molecule `C/C(=C(\CCO)SC(=O)c1ccc(F)c2ccccc12)N(C=O)Cc1cnc(C)nc1N` [Compound M44, (Z)—S-(2-(N-((4-amino-2-methylpyrimidin-5-yl)methyl)formamido)-5-hydroxypent-2-en-3-yl) 4-fluoronaphthalene-1-carbothioate], the fold induction at 50 µM in the assay on riboswitch 15D10 [1] turned out to be 314; in the assay on riboswitch 15D10 [2], 177.

On to `C/C(=C(\CCO)SC(=O)c1cccc2cccc(F)c12)N(C=O)Cc1cnc(C)nc1N` [Compound M45, (Z)—S-(2-(N-((4-amino-2-methylpyrimidin-5-yl)methyl)formamido)-5-hydroxypent-2-en-3-yl) 8-fluoronaphthalene-1-carbothioate], for which the fold induction at 50 µM was determined as 2.9 in the assay with riboswitch 15D10 [1] and 1.3 in the assay on riboswitch 15D10 [2].

In the case of `C/C(=C(\CCO)SC(=O)c1cccc2cccc(C)c12)N(C=O)Cc1cnc(C)nc1N` [Compound M46, (Z)—S-(2-(N-((4-amino-2-methylpyrimidin-5-yl)methyl)formamido)-5-hydroxypent-2-en-3-yl) 8-methylnaphthalene-1-carbothioate], the fold induction at 50 µM in the assay on riboswitch 15D10 [1] came out at 6; in the assay on riboswitch 15D10 [2], 1.3.

`COc1ccc(C(=O)S/C(CCO)=C(/C)N(C=O)Cc2cnc(C)nc2N)c2ccccc12` [Compound M47, (Z)—S-(2-(N-((4-amino-2-methylpyrimidin-5-yl)methyl)formamido)-5-hydroxypent-2-en-3-yl) 4-methoxynaphthalene-1-carbothioate]: the fold induction at 50 µM with riboswitch 15D10 [1] came out at 85.1; in the assay on riboswitch 15D10 [2] it was 25.3.

Regarding `C/C(=C(\CCO)SC(=O)c1ccc2ccccc2c1)N(C=O)Cc1cnc(C)nc1N` [Compound M49, (Z)—S-(2-(N-((4-amino-2-methylpyrimidin-5-yl)methyl)formamido)-5-hydroxypent-2-en-3-yl) naphthalene-2-carbothioate], the fold induction at 50 µM with riboswitch 15D10 [1] came to 202; in the assay on riboswitch 15D10 [2] it was 414.

As for `C/C(=C(\CCO)SC(=O)c1ccc2c(c1)C(C)(C)CCC2(C)C)N(C=O)Cc1cnc(C)nc1N` [Compound M50, (Z)—S-(2-(N-((4-amino-2-methylpyrimidin-5-yl)methyl)formamido)-5-hydroxypent-2-en-3-yl) 5,5,8,8-tetramethyl-5,6,7,8-tetrahydronaphthalene-2-carbothioate], the results for the fold induction at 50 µM in the assay on riboswitch 15D10 [1] and with riboswitch 15D10 [2] were 142 and 93.5, respectively.

As for `C/C(=C(\CCO)SC(=O)c1ccc2ccccc2c1Br)N(C=O)Cc1cnc(C)nc1N` [Compound M51, (Z)—S-(2-(N-((4-amino-2-methylpyrimidin-5-yl)methyl)formamido)-5-hydroxypent-2-en-3-yl) 1-bromonaphthalene-2-carbothioate], the fold induction at 50 µM came out at 189 in the assay with riboswitch 15D10 [1] and 392 in the assay with riboswitch 15D10 [2].
